Columns and labels:
Type in all cases: in vivo
[1] = tested on: blackgrass (Alopecurus myosuroides); experiment: Test A postemergence; settings: Alopecurus myosuroides, post-emergence, 240 h, 0 to 100 scale, read-out: Plant response rating, Blackgrass
Method in brief: (§1)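 Visual 0–100 rating (100 = complete control) taken about 10 d post-treatment relative to untreated checks. Preemergence: directed soil spray on sown loam/sand pots. Postemergence: seedlings 2–10 cm, 1–2 leaf. Non-phytotoxic solvent formulation with surfactant.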

[2] = tested on: barnyardgrass (Echinochloa crus-galli); experiment: Test A postemergence; settings: Echinochloa crus-galli, post-emergence, 240 h, 0 to 100 scale, read-out: Plant response rating, Barnyardgrass
Method in brief: as §1

[3] = tested on: pigweed (Amaranthus retroflexus); experiment: Test A postemergence; settings: Amaranthus retroflexus, post-emergence, 240 h, 0 to 100 scale, read-out: Plant response rating, Pigweed
Method in brief: as §1

[4] = tested on: giant foxtail (Setaria faberii); experiment: Test A postemergence; settings: Setaria faberi, post-emergence, 240 h, 0 to 100 scale, read-out: Plant response rating, Foxtail, Giant
Method in brief: as §1

[5] = tested on: ragweed (common ragweed, Ambrosia elatior); experiment: Test A postemergence; settings: Ambrosia artemisiifolia, post-emergence, 240 h, 0 to 100 scale, read-out: Plant response rating, Ragweed
Method in brief: as §1

[6] = tested on: wheat (Triticum aestivum); experiment: Test A postemergence; settings: Triticum aestivum, post-emergence, 240 h, 0 to 100 scale, read-out: Plant response rating, Wheat
Method in brief: as §1

kochia (Kochia scoparia) [7] = experiment: Test A postemergence; settings: Bassia scoparia, post-emergence, 240 h, 0 to 100 scale, read-out: Plant response rating, Kochia
Method in brief: as §1

[8] = tested on: galium (catchweed bedstraw, Galium aparine); experiment: Test A postemergence; settings: Galium, post-emergence, 240 h, 0 to 100 scale, read-out: Plant response rating, Galium
Method in brief: as §1

corn (Zea mays) = experiment: Test A postemergence; settings: Zea mays, post-emergence, 240 h, 0 to 100 scale
Method in brief: as §1

[9] = tested on: Italian ryegrass (Lolium multiflorum); experiment: Test A postemergence; settings: Lolium multiflorum, post-emergence, 240 h, 0 to 100 scale, read-out: Plant response rating, Ryegrass, Italian
Method in brief: as §1

[10] = tested on: barnyardgrass (Echinochloa crus-galli); experiment: Test A preemergence; settings: Echinochloa crus-galli, pre-emergence, 240 h
Method in brief: as §1

[11] = tested on: pigweed (Amaranthus retroflexus); experiment: Test A preemergence; settings: Amaranthus retroflexus, pre-emergence, 240 h
Method in brief: as §1

[12] = tested on: giant foxtail (Setaria faberii); experiment: Test A preemergence; settings: Setaria faberi, pre-emergence, 240 h
Method in brief: as §1

[13] = tested on: ragweed (common ragweed, Ambrosia elatior); experiment: Test A preemergence; settings: Ambrosia artemisiifolia, pre-emergence, 240 h
Method in brief: as §1

kochia (Kochia scoparia) [14] = experiment: Test A preemergence; settings: Bassia scoparia, pre-emergence, 240 h
Method in brief: as §1

[15] = tested on: Italian ryegrass (Lolium multiflorum); experiment: Test A preemergence; settings: Lolium multiflorum, pre-emergence, 240 h
Method in brief: as §1

[16] = tested on: barnyardgrass (Echinochloa crus-galli); experiment: Test B flooded paddy; settings: Echinochloa crus-galli, 336 h; 250 g ai/ha, Flood, 13 to 15 days, scale 0 (no effect) to 100 (complete control); read-out: Plant response rating, Barnyardgrass
Method in brief: (§2)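 Ratings were visual and made relative to untreated controls after 13 to 15 greenhouse days.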

[17] = tested on: sedge, umbrella (small-flower umbrella sedge, Cyperus difformis); experiment: Test B flooded paddy; settings: Cyperus difformis, 336 h; 250 g ai/ha, Flood, 13 to 15 days, scale 0 (no effect) to 100 (complete control); read-out: Plant response rating, Sedge, Umbrella
Method in brief: as §2

[18] = tested on: ducksalad (Heteranthera limosa); experiment: Test B flooded paddy; settings: Heteranthera limosa, 336 h; 250 g ai/ha, Flood, 13 to 15 days, scale 0 (no effect) to 100 (complete control); read-out: Plant response rating, Ducksalad
Method in brief: as §2

rice (Oryza sativa) = experiment: Test B flooded paddy; settings: Oryza sativa, 336 h; 250 g ai/ha, Flood, 13 to 15 days, scale 0 (no effect) to 100 (complete control); read-out: Plant response rating, Rice
Method in brief: as §2

FC(F)c1cnc(Oc2c(Br)cccc2Oc2ncc(Cl)cn2)s1 [Compound 10, 2-[3-bromo-2-[[5-(difluoromethyl)-2-thiazolyl]oxy]phenoxy]-5-chloropyrimidine]
pest or weed control at 31 g/ha ([1]; 31 g ai/ha): 10% | pest or weed control at 125 g/ha ([1]; 125 g ai/ha): 70% | pest or weed control at 31 g/ha ([2]; 31 g ai/ha): 0% | pest or weed control at 125 g/ha ([2]; 125 g ai/ha): 20% | pest or weed control at 31 g/ha ([3]; 31 g ai/ha): 90% | pest or weed control at 125 g/ha ([3]; 125 g ai/ha): 100% | pest or weed control at 31 g/ha ([4]; 31 g ai/ha): 0% | pest or weed control at 125 g/ha ([4]; 125 g ai/ha): 20% | pest or weed control at 31 g/ha ([5]; 31 g ai/ha): 0% | pest or weed control at 125 g/ha ([5]; 125 g ai/ha): 30% | plant injury at 31 g/ha ([6]; 31 g ai/ha): 0% | plant injury at 125 g/ha ([6]; 125 g ai/ha): 0% | pest or weed control at 31 g/ha (kochia (Kochia scoparia) [7]; 31 g ai/ha): 20% | pest or weed control at 125 g/ha (kochia (Kochia scoparia) [7]; 125 g ai/ha): 80% | pest or weed control at 31 g/ha ([8]; 31 g ai/ha): 50% | pest or weed control at 125 g/ha ([8]; 125 g ai/ha): 100% | Corn plant response rating (crop injury, 0 = no effect, 100 = complete kill) at 31 g/ha (corn (Zea mays); 31 g ai/ha): 0% | Corn plant response rating (crop injury, 0 = no effect, 100 = complete kill) at 125 g/ha (corn (Zea mays); 125 g ai/ha): 10% | pest or weed control at 31 g/ha ([9]; 31 g ai/ha): 0% | pest or weed control at 125 g/ha ([9]; 125 g ai/ha): 60% | pest or weed control at 31 g/ha ([10]; 31 g ai/ha, 0 to 100 scale (0 no effect, 100 complete control), read-out: Barnyardgrass plant response rating): 0% | pest or weed control at 125 g/ha ([10]; 125 g ai/ha, 0 to 100 scale, read-out: Plant response rating, Barnyardgrass): 30% | pest or weed control at 31 g/ha ([11]; 31 g ai/ha, 0 to 100 scale (0 no effect, 100 complete control), read-out: Pigweed plant response rating): 90% | pest or weed control at 125 g/ha ([11]; 125 g ai/ha, 0 to 100 scale, read-out: Plant response rating, Pigweed): 100% | pest or weed control at 31 g/ha ([12]; 31 g ai/ha, 0 to 100 scale (0 no effect, 100 complete control), read-out: Foxtail, Giant plant response rating): 40% | pest or weed control at 125 g/ha ([12]; 125 g ai/ha, 0 to 100 scale, read-out: Plant response rating, Foxtail, Giant): 90% | pest or weed control at 31 g/ha ([13]; 31 g ai/ha, 0 to 100 scale (0 no effect, 100 complete control), read-out: Ragweed plant response rating): 0% | pest or weed control at 125 g/ha ([13]; 125 g ai/ha, 0 to 100 scale, read-out: Plant response rating, Ragweed): 0% | pest or weed control at 31 g/ha (kochia (Kochia scoparia) [14]; 31 g ai/ha, 0 to 100 scale (0 no effect, 100 complete control), read-out: Kochia plant response rating): 0% | pest or weed control at 125 g/ha (kochia (Kochia scoparia) [14]; 125 g ai/ha, 0 to 100 scale, read-out: Plant response rating, Kochia): 50% | pest or weed control at 31 g/ha ([15]; 31 g ai/ha, 0 to 100 scale (0 no effect, 100 complete control), read-out: Ryegrass, Italian plant response rating): 0% | pest or weed control at 125 g/ha ([15]; 125 g ai/ha, 0 to 100 scale, read-out: Plant response rating, Ryegrass, Italian): 40% | pest or weed control at 250 g/ha [16]: 0% | pest or weed control at 250 g/ha [17]: 0% | pest or weed control at 250 g/ha [18]: 0% | plant injury at 250 g/ha (rice (Oryza sativa)): 0%

Source: US20170190671A1, “BIS(ARYL)CATECHOL DERIVATIVES AS HERBICIDES” (E I DU PONT DE NEMOURS AND COMPANY, priority 2014, published 2017)
